Data on 6 molecules can be found in patent US8252572B2, “Use of islet glucose-6-phosphatase related protein as a diagnostic tool and therapeutic target for autoimmune diabetes” (priority 2003, dated 2012).

The subject of one assay is NY8.3 CD8 T-cell clone. The conditions noted are these: cited from earlier work.
The test system of assay [1] is CD8 positive cells from the whole pancreas of NOD mice. The assay is described as follows: MHC class I tetramer binding to pancreatic mononuclear cells (FACS). In kind it is cell-based, NOD mouse. The source says:
Cells were isolated from collagenase digested mouse pancreas by gradient centrifugation and subject to 3 color FACS analysis using antibodies to CD45, CD8 and PE-streptavidin conjugated tetramers carrying peptides derived from IGRP. The gated (R1) population were 95% CD45 positive and composed of 12.5% CD8 cells.
MHC class I tetramers were generated using the NIH tetramer facility. These were loaded with a series of peptides including the native mouse IGRP peptide (VYLKTNVFL (SEQ ID NO.: 6); peptide C, FIG. 4) corresponding to the NRP-V7 mimeotope (KYNKANVFL (SEQ ID NO.: 7)) that stimulates the NY8.3 CD8 T-cell clone. A procedure was developed for the isolation of mononuclear cells from the whole pancreas of NOD mice yielding approximately 0.5-1×10^6 CD45 positive cells (lymphocytes) per mouse (12-16 wk females) for tetramer binding assays (FIG. 4). The lymphocyte population contained 10-15% CD8 positive cells of which 8% bound the native peptide tetramer. These assays confirm the remarkable finding that a major proportion of the CD8 cells in the NOD pancreas target one specific IGRP epitope. The procedure developed here represents a technical advance on previous tetramer studies of activated NRP reactive T-cell in NOD mice which required up to 40 animals for a single experiment and amplification of islet-derived T-cells for 7-9 days in the presence of IL-2.

For assay [2], the system named is mixed lymphocyte preparations of pre-diabetic 12 week old female NOD mice. The assay is described as follows: T-cell proliferative responses to recombinant antigens (3H thymidine). The conditions noted are these: for T-cell proliferative response (in words): recombinant antigens as β-galactosidase fusion proteins, NOD lymphocytes. In kind it is cell-based, NOD mouse. On the procedure: Lymphocytes prepared from pancreatic draining lymph nodes were mixed with splenocytes from the same animal and incubated for 3 days (500×10^3 cells) in Click's medium with […] NOD mouse serum 50 μM mercaptoethanol and the indicated recombinant antigens that were generated as fusion proteins with β-galactosidase in the pUEX vector. Cultures were pulsed for 16 h with ^3H thymidine prior to harvest.
T-cell proliferative responses to recombinant IGRP (3-100 μg/ml) were observed from mixed lymphocyte preparations of pre-diabetic 12 week old female NOD mice (SImax=10).

For the molecule “KYNKANVFL (SEQ ID NO.: 7) (artificial Mus sp.) [NRP-V7, mimeotope that stimulates the NY8.3 CD8 T-cell clone]”, the “stimulation of T-cell clone (in words)” value in the assay on NY8.3 CD8 T-cell clone was “stimulates”.
Take “VYLKTNVFL (SEQ ID NO.: 6) (listed as Mus sp.) [peptide C, native mouse IGRP peptide, cognate peptide of the NY8.3 clone]”: the “proportion of CD8 positive cells that bound the tetramer” value in assay [1] (K^d tetramer loaded with peptide, pancreatic lymphocytes of 12-16 wk female NOD mice) is 8%. In addition, the “tetramer staining of pancreatic CD8 cells (in words)” value in assay [1] (PE-streptavidin conjugated tetramers carrying peptides derived from IGRP, 3 color FACS, FIG. 4) is given as “significant proportion bound”.
Turning to “β-galactosidase: the fusion partner, used as control antigen [reference compound]”, in assay [2], the “T-cell proliferative response (in words)” value was “minimal response”.

B1: G6Pase: equivalent β-galactosidase fusion construct with liver glucose-6-phosphatase (protein, UniProt P35575 1-357, looked up)
Glucose-6-phosphatase …: MEEGMNVLHDFGIQSTHYLQVNYQDSQDWFILVSVIADLRNAFYVLFPIWFHLQEAVGIKLLWVAVIGDWLNLVFKWILFGQRPYWWVLDTDYYSNTSVPLIKQFPVTCETGPGSPSGHAMGTAGVYYVMVTSTLSIFQGKIKPTYRFRCLNVILWLGFWAVQLNVCLSRIYLAAHFPHQVVAGVLSGIAVAETFSHIHSIYNASLKKYFLITFFLFSFAIGFYLLLKGLGVDLLWTLEKAQRWCEQPEWVHIDTTPFASLLKNLGTLFGLGLALNSSMYRESCKGKLSKWLPFRLSSIVASLVLLHVFDSLKPPSQVELVFYVLSFCKSAVVPLASVSVIPYCLAQVLGQPHKKSL
Regarding B1, the “T-cell proliferative response (in words)” value in assay [2] is “minimal response”.

B2: UGRP: equivalent construct with ubiquitously expressed G6Pase related protein (protein, UniProt Q6NSQ9 1-346, looked up)
Glucose-6-phosphatase 3: MESTLSAGIIMAEALQNRLPGLENMWLWVTFLGDPKNLFQFCFPAAYYASRRLGISVLWITFIAEWLNLVFKWFLFGDRPFWWVHESGYSTQTPIQIHQFPSSCETGPGSPSGHCMITGAALWPVMTAISSQVASRSRSPWVRVIPGLAYCTFLLAVGLSRVFLLAHFPHQVLGGLIVGAALGWLMSPRVPMERELSFYGLTALALMLGASLMYWTLFTLGLDLSWSINLASKWCERPEWVHMDSRPFASLSRDSGSALGLGIALHTPCYAQIRRAHLGNGQKIACFVLAMGLLVFLEWLGYPPQISLFYIFNFLKYTLWPCLVLALVPWVVHTLSDQEAPPIRSS
B2: in assay [2], the “T-cell proliferative response (in words)” value is recorded as “minimal response”.

B3: recombinant IGRP: recombinant islet glucose-6-phosphatase related protein generated as fusion protein with β-galactosidase in the pUEX vector (protein, UniProt Q9Z186 1-355, looked up)
Glucose-6-phosphatase 2: MDFLHRSGVLIIHHLQEDYRTYYGFLNFMSNVGDPRNIFSIYFPLWFQLNQNVGTKMIWVAVIGDWFNLIFKWILFGHRPYWWIQETEIYPNHSSPCLEQFPTTCETGPGSPSGHAMGSSCVWYVMVTAALSYTISRMEESSVTLHRLTWSFLWSVFWLIQISVCISRVFIATHFPHQVILGVIGGMLVAEAFEHTPGVHMASLSVYLKTNVFLFLFALGFYLLLRLFGIDLLWSVPIAKKWCANPDWIHIDSTPFAGLVRNLGVLFGLGFAINSEMFLRSCQGENGTKPSFRLLCALTSLTTMQLYRFIKIPTHAEPLFYLLSFCKSASIPLMVVALIPYCVHMLMRPGDKKTK
For the molecule B3, in assay [2] (recombinant IGRP 3-100 μg/ml, β-galactosidase fusion protein, 3 days culture, 16 h 3H thymidine pulse), the “T-cell proliferative response, SImax” value is 10.
